The target of test [1] is T1, human ACC1 (acetyl-coenzyme A carboxylase alpha transcript variant 1) (Homo sapiens, UniProt Q13085).
T1 construct: FLAG (C); made in house; host or cells: baculovirus-infected insect cells (Hi5)
Briefly: Human ACC1 enzyme assay, Assay B1 (ADP-Glo). It is filed as biochemical.

Test [2] has as its target human ACC2 (acetyl-coenzyme A carboxylase 2) (Homo sapiens, UniProt O00763). Kind of test: Human ACC2 enzyme assay, Assay B2 (ADP-Glo).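 Further: human ACC2 activity read as ADP product, detected by luciferase glow luminescence after residual ATP removal, enzyme near 2 ng/µl in linear range, detection steps at 22 °C.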
The mark [3] stands for this setting: Assay B1, read-out: ACC 1 (=B1) IC50.

Like-named read-outs stand apart in the source and are kept apart here.

Sequence of human ACC2 (acetyl-coenzyme A carboxylase 2) (O00763 27-2458 limits assumed): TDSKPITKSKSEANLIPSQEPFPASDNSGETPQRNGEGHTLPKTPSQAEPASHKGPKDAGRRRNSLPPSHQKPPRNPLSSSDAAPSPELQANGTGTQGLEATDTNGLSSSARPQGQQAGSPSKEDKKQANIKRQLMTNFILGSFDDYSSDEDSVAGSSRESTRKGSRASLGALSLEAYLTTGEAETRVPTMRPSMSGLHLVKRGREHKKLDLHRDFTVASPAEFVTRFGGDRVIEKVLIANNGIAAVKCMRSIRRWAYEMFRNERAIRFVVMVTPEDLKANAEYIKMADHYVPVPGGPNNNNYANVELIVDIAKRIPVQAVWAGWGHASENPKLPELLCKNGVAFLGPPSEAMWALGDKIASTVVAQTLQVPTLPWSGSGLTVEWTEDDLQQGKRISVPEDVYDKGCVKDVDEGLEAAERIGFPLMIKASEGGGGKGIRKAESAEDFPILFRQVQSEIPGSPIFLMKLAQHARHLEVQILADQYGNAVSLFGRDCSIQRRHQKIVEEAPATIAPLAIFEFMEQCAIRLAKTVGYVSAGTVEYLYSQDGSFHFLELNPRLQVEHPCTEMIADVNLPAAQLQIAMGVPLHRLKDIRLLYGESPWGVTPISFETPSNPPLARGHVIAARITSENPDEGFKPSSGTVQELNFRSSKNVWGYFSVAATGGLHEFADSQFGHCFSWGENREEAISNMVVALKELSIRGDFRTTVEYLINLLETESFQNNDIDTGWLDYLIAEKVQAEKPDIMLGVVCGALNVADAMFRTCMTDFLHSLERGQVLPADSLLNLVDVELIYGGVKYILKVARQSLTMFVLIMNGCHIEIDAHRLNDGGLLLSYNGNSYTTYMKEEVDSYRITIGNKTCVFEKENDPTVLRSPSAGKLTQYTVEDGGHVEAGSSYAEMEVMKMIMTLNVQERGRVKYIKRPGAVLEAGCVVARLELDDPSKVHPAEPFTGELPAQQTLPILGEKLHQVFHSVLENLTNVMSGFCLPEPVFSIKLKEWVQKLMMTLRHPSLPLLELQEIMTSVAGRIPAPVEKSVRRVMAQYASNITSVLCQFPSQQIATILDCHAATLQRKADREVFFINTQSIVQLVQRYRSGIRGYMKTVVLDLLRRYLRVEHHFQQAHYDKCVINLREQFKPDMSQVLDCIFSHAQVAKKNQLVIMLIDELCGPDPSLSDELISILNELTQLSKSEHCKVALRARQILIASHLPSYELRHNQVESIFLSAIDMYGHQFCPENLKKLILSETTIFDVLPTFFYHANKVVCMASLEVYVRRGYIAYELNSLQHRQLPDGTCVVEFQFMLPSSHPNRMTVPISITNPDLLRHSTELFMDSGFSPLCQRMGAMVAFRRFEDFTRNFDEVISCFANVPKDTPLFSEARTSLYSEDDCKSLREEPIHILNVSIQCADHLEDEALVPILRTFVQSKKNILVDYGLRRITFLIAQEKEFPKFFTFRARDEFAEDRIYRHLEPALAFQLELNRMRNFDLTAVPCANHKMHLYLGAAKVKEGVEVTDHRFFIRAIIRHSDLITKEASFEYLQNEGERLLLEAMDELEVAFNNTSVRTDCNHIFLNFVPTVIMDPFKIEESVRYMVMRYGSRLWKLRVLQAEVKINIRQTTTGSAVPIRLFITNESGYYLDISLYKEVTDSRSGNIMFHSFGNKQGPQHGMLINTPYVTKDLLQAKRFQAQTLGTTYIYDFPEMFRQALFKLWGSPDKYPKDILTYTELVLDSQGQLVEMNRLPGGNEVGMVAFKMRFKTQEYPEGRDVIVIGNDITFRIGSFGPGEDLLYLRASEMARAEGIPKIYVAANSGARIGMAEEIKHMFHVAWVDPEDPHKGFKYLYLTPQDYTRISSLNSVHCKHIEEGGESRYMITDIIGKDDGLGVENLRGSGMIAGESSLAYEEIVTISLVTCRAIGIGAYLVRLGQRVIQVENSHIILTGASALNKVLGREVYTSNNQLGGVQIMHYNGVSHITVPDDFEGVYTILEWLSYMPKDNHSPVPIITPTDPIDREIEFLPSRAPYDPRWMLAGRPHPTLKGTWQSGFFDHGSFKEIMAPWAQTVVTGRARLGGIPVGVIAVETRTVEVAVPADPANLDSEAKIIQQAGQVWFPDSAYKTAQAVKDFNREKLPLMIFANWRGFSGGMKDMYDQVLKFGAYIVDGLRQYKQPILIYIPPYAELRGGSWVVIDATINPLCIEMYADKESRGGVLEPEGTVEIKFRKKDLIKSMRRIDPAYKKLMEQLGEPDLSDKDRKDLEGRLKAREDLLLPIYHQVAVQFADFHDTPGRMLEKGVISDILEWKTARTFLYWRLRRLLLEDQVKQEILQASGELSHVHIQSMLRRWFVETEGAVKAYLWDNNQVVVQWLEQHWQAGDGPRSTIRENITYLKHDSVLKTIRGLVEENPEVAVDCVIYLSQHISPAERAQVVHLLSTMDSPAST

In general, IC50 refers to the concentration that inhibits the measured activity by half. Take `Cc1ccc(-c2ccc(Cl)cc2)c(C)c1C1=C(O)C2(CCC3(CC2)OCC(C)O3)NC1=O` (stereo not shown) [1-62, 11-(4′-chloro-2,4-dimethylbiphenyl-3-yl)-12-hydroxy-2-methyl-1,4-dioxa-9-azadispiro[4.2.4.2]tetradec-11-en-10-one]: the results for the IC50 in test [1] (setting [3]) and in test [2] were 385 nM and 5.74 µM, respectively.

On to `Cc1ccc(-c2ccc(Cl)cc2)cc1C1=C(O)C2(CCC3(CC2)OCC(C)O3)NC1=O` (stereo not shown) [1-63, 11-(4′-chloro-4-methylbiphenyl-3-yl)-12-hydroxy-2-methyl-1,4-dioxa-9-azadispiro[4.2.4.2]tetradec-11-en-10-one], for which the values for the IC50 in test [1] and in test [2] were 277 nM and 7.27 µM, respectively.

Consider `Cc1ccc(-c2ccc(Cl)cc2)cc1C1=C(O)C2(CCC3(CC2)OC(C)C(C)O3)NC1=O` (stereo not shown) [1-64, 11-(4′-chloro-4-methylbiphenyl-3-yl)-12-hydroxy-2,3-dimethyl-1,4-dioxa-9-azadispiro[4.2.4.2]tetradec-11-en-10-one], for which the IC50 in test [1] was 571 nM; in test [2] it was over 20 µM.

Regarding `CC1(C)COC2(CCC3(CC2)NC(=O)C(c2cc(-c4ccc(Cl)cc4)ccc2Cl)=C3O)OC1` [1-65, 3-(4,4′-dichlorobiphenyl-3-yl)-4-hydroxy-11,11-dimethyl-9,13-dioxa-1-azadispiro[4.2.5.2]pentadec-3-en-2-one], the IC50 in test [1] (setting [3]) was 1160 nM; in test [2] it was 14.7 µM.

For the molecule `Cc1ccc(-c2ccc(Cl)cc2)cc1C1=C(O)C2(CCC3(CC2)OCC(C)CO3)NC1=O` (stereo not shown) [1-66, 3-(4′-chloro-4-methylbiphenyl-3-yl)-4-hydroxy-11-methyl-9,13-dioxa-1-azadispiro[4.2.5.2]pentadec-3-en-2-one], the IC50 in test [1] turned out to be 493 nM; in test [2], 3.13 µM.

`Cc1ccc(-c2ccc(Cl)cc2)cc1C1=C(O)C2(CCC3(CC2)OCC(C)(C)CO3)NC1=O` [1-67, 3-(4′-chloro-4-methylbiphenyl-3-yl)-4-hydroxy-11,11-dimethyl-9,13-dioxa-1-azadispiro[4.2.5.2]pentadec-3-en-2-one]: the values for the IC50 in test [1] (setting [3]) and in test [2] were 918 nM and 5.2 µM, respectively.

Consider `CC1COC2(CCC3(CC2)NC(=O)C(c2cc(-c4ccc(Cl)cc4)ccc2Cl)=C3O)O1` (stereo not shown) [1-68, 11-(4,4′-dichlorobiphenyl-3-yl)-12-hydroxy-2-methyl-1,4-dioxa-9-azadispiro[4.2.4.2]tetradec-11-en-10-one], for which the IC50 in test [1] worked out at 547 nM; in test [2] it was 5.9 µM.

For the molecule `CC1COC2(CCC3(CC2)NC(=O)C(c2cc(-c4ccc(Cl)cc4)ccc2Cl)=C3O)OC1` (stereo not shown) [1-69, 3-(4,4′-dichlorobiphenyl-3-yl)-4-hydroxy-11-methyl-9,13-dioxa-1-azadispiro[4.2.5.2]pentadec-3-en-2-one], the IC50 in test [1] (setting [3]) is 838 nM; in test [2], over 20 µM.

As to `Cc1ccc(-c2ccc(Cl)cc2)c(C)c1C1=C(O)C2(CCC3(CC2)OCCO3)NC1=O` [1-70, 11-(4′-chloro-2,4-dimethylbiphenyl-3-yl)-12-hydroxy-1,4-dioxa-9-azadispiro[4.2.4.2]tetradec-11-en-10-one], the IC50 in test [1] was determined as 286 nM; in test [2] it was 2.92 µM.

As to `COC1CCCC2(C1)NC(=O)C(c1c(C)ccc(-c3ccc(Cl)cc3)c1C)=C2O` (stereo not shown) [1-72, 3-(4′-chloro-2,4-dimethylbiphenyl-3-yl)-4-hydroxy-7-methoxy-1-azaspiro[4.5]dec-3-en-2-one], the concentration for half-maximal inhibition (IC50) amounted to 1140 nM in test [1] and 14.9 µM in test [2].

As to `CCOC1CCCC2(C1)NC(=O)C(c1c(C)ccc(-c3ccc(Cl)cc3)c1C)=C2O` (stereo not shown) [1-73, 3-(4′-chloro-2,4-dimethylbiphenyl-3-yl)-7-ethoxy-4-hydroxy-1-azaspiro[4.5]dec-3-en-2-one], the IC50 was 563 nM in test [1] (setting [3]) and over 20 µM in test [2].

`CCOC1CCC2(CC1)NC(=O)C(c1c(C)cc(C)c(-c3ccc(Cl)cc3)c1C)=C2O` (stereo not shown) [1-75, 3-(4′-chloro-2,4,6-trimethylbiphenyl-3-yl)-8-ethoxy-4-hydroxy-1-azaspiro[4.5]dec-3-en-2-one]: the results for the IC50 in test [1] and in test [2] were 5680 nM and 0.803 µM, respectively.

As to `Cc1ccc(-c2ccc(Cl)cc2)cc1C1=C(O)C(C)(C(C)C)NC1=O` (stereo not shown) [1-78, 3-(4′-chloro-4-methylbiphenyl-3-yl)-4-hydroxy-5-methyl-5-(propan-2-yl)-1,5-dihydro-2H-pyrrol-2-one], the IC50 in test [1] (setting [3]) is 958 nM; in test [2], 8.12 µM.

Turning to `Cc1ccc(-c2ccc(Cl)cc2)cc1C1=C(O)C2(CCCC(C)C2)NC1=O` (stereo not shown) [1-82, 3-(4′-chloro-4-methylbiphenyl-3-yl)-4-hydroxy-7-methyl-1-azaspiro[4.5]dec-3-en-2-one], the IC50 in test [1] (setting [3]) was found to be 539 nM; in test [2], 1.32 µM.

For the molecule `CCCC1CCC2(CC1)NC(=O)C(c1cc(-c3ccc(Cl)cc3)ccc1C)=C2O` (stereo not shown) [1-83, 3-(4′-chloro-4-methylbiphenyl-3-yl)-4-hydroxy-8-propyl-1-azaspiro[4.5]dec-3-en-2-one], the figures for the IC50 in test [1] (setting [3]) and in test [2] were 582 nM and 1.88 µM, respectively.

`Cc1ccc(-c2ccc(Cl)cc2)cc1C1=C(O)C2(CC2)NC1=O` [1-84, 6-(4′-chloro-4-methylbiphenyl-3-yl)-7-hydroxy-4-azaspiro[2.4]hept-6-en-5-one]: the IC50 was 650 nM in test [1] (setting [3]) and over 20 µM in test [2].

Regarding `Cc1ccc(-c2ccc(Cl)cc2)cc1C1=C(O)C2(CCCC2)NC1=O` [1-85, 3-(4′-chloro-4-methylbiphenyl-3-yl)-4-hydroxy-1-azaspiro[4.4]non-3-en-2-one], the IC50 is 251 nM in test [1] (setting [3]) and 9.21 µM in test [2].

For `Cc1ccc(-c2ccc(Cl)cc2)cc1C1=C(O)C(C)(C2CC2)NC1=O` (stereo not shown) [1-86, 3-(4′-chloro-4-methylbiphenyl-3-yl)-5-cyclopropyl-4-hydroxy-5-methyl-1,5-dihydro-2H-pyrrol-2-one], the IC50 in test [1] (setting [3]) came to 575 nM; in test [2] it was 6.12 µM.

Take `CC[C@]1(OC)CC[C@@]2(CC1)NC(=O)C(c1c(C)ccc(-c3ccc(Cl)cc3)c1C)=C2O` [1-88, (5r,8r)-3-(4′-chloro-2,4-dimethylbiphenyl-3-yl)-8-ethyl-4-hydroxy-8-methoxy-1-azaspiro[4.5]dec-3-en-2-one]: the IC50 was determined as 452 nM in test [1] and 11.7 µM in test [2].

`CC[C@]1(OC)CC[C@@]2(CC1)NC(=O)C(c1c(C)ccc(-c3ccc(F)cc3)c1C)=C2O` [1-89, (5r,8r)-8-ethyl-3-(4′-fluoro-2,4-dimethylbiphenyl-3-yl)-4-hydroxy-8-methoxy-1-azaspiro[4.5]dec-3-en-2-one]: the values for the IC50 in test [1] and in test [2] were 2070 nM and 13.6 µM, respectively.

As for `CCC1CCC2(CC1)OC(=O)C(c1cc(-c3ccc(Cl)cc3)ccc1C)=C2O` (stereo not shown) [2-1, 3-(4′-chloro-4-methylbiphenyl-3-yl)-8-ethyl-4-hydroxy-1-oxaspiro[4.5]dec-3-en-2-one], the IC50 in test [1] (Assay B1, ADP-Glo, read-out: ACC 1 (=B1) IC50) was 1140 nM; in test [2], 15.2 µM.

As to `Cc1ccc(-c2ccc(Cl)cc2)c(C)c1C1=C(O)C2(CCCC2)OC1=O` [2-2, 3-(4′-chloro-2,4-dimethylbiphenyl-3-yl)-4-hydroxy-1-oxaspiro[4.4]non-32--en-2-one], the IC50 in test [1] is 2360 nM; in test [2], over 20 µM.

For `Cc1cc(C)c(-c2ccc(Cl)cc2)c(C)c1C1=C(O)C(C)(C)OC1=O` [2-5, 3-(4′-chloro-2,4,6-trimethylbiphenyl-3-yl)-4-hydroxy-5,5-dimethylfuran-2(5H)-one], the values for the IC50 in test [1] and in test [2] were 1260 nM and 7.34 µM, respectively.
